Data set [1] has as its target T1, GST-hLGK1 (human hepatic GK) (Homo sapiens, UniProt P35557).
T1 construct: made in house; host or cells: Escherichia coli BL21 (pGEX6P-2/hLGK1)
T1 sequence (P35557 1-464 isoform P35557-3): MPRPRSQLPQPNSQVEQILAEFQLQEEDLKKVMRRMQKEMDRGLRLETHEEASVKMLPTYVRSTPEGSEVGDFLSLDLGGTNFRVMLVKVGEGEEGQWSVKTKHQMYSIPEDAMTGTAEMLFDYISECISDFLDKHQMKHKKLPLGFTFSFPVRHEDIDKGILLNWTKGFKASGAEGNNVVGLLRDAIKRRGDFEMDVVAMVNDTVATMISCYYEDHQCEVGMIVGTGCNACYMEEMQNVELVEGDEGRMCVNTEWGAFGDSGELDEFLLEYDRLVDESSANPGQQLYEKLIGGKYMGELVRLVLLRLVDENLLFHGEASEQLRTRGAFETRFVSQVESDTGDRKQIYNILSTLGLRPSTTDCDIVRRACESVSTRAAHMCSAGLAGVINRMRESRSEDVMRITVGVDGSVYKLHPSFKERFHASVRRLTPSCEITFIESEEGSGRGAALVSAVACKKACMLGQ
The experiment in a line: Measurement of GK activation value (Mant-ATP/Mant-ADP capillary electrophoresis, reaction rate). The settings on record: concentration necessary for activation of 50% of the maximum activity value; 37° C., 60 min. Format: biochemical. As to the method: A plasmid DNA for expression of protein (GST-hLGK1) containing GST (Glutathione S-transferase) added to human hepatic GK amino terminal in Escherichia coli was prepared as follows.
BL21 strain (Stratagene) transformed with pGEX6P-2/hLGK1 obtained in Reference Example 1A was cultured with shaking in a 200 ml Erlenmeyer flask containing a 100 μg/ml ampicillin-containing LB medium (50 ml) at 37° C. for 14 hr. The culture medium (25 ml) was diluted with 100 μg/ml ampicillin-containing LB medium (225 ml), and further cultured with shaking in a 1 L Erlenmeyer flask at 37° C. for 1 hr. After cooling on ice the Erlenmeyer flask after culture, 100 mM Isopropyl-Thio-β-D-Galactopyranoside (IPTG) (125 μL) was added (final concentration 50 μM), and the mixture was cultured at 17° C. for 20 hr. After centrifugation of the culture medium, the obtained cells were ultrasonicated, and the object protein (GST-hLGK1) was purified from the supernatant using Glutathione Sepharose 4B (Amersham Biosciences).
A 50% solution (5 μL) of the test compound in dimethyl sulfoxide was added to each well of a 384 well black plate (Nalge Nunc). Then, 35 μL of a liquid obtained by diluting GST-hLGK1 obtained in Reference Example 2A with a measurement buffer (50 mM HEPES (pH 7.4), containing 200 mM KCl, 5 mM MgCl2, 2.5 mM DTT and 50 μM 2′-(or-3′)-O—(N-methylanthraniloyl)adenosine 5′-triphosphate (Mant-ATP) (Jena Bioscience)) was added to each well to 6 μg/mL.
Each well was stood at 37° C. for 10 min, and a 25 mM D-glucose solution (10 μL) was added to start the reaction.
Each well after the start of the reaction was stood at 37° C. for 60 min, and the reaction was quenched by adding 25 μL of a reaction quenching solution (200 mM HEPES (pH 7.4), containing 20 mM MgCl2, 200 mM EDTA, 0.03% Triton-X 100, 0.3% Coating 3 reagent (Caliper Life Sciences)).
Mant-ATP (substrate) and Mant-ADP (reaction resultant product) were separated from each well after quenching the reaction, with a microchip type capillary electrophoresis apparatus 250HTS (Caliper Life Sciences). The reaction rate [(peak height of reaction resultant product)/(peak height of reaction resultant product+peak height of substrate)×100(%)] was calculated from the ratio of the substrate peak height and the reaction resultant product peak height, which were obtained by fluorescence detection (excitation wavelength 355 nm, measurement wavelength 460 nm), and used as an index of the GK activity.
For the control, the reaction rate was calculated in the same manner as in the above except that “50% dimethyl sulfoxide solution” was used instead of the “50% solution of the test compound in dimethyl sulfoxide”.
A percentage obtained by dividing the reaction rate of the well added with the test compound (test compound addition group) by the reaction rate of the well added with a 50% dimethyl sulfoxide solution alone (control group) was taken as the GK activation value by the test compound, and the concentration of the test compound necessary for the activation of 50% of the maximum activity value is shown as an EC50 value.

The structures appear in SMILES notation.

Usually EC50 stands for the concentration that produces a half-maximal response. The melting point is the temperature, or range, at which the solid turns liquid. As to `CC(C)Oc1cc(OCc2ccccc2)cc(-c2nc3cccnc3[nH]2)c1` [Example 2, 2-[3-(benzyloxy)-5-isopropoxyphenyl]-3H-imidazo[4,5-b]pyridine], the melting point was in the range of 136 to 137 °C. In data set [1], this compound had an EC50 of 130 nM.
With `CC(C)Oc1cc(OCCc2ccsc2)cc(-c2nc3cccnc3[nH]2)c1` [Example 3, 2-{3-isopropoxy-5-[2-(3-thienyl)ethoxy]phenyl}-3H-imidazo[4,5-b]pyridine], the melting point fell in the range of 82 to 83 °C. In data set [1], this compound came in with an EC50 of 150 nM.
The corresponding values for `CC(C)Oc1cc(OCCCc2cccnc2)cc(-c2nc3cccnc3[nH]2)c1` [Example 4, 2-[3-isopropoxy-5-(3-pyridin-3-ylpropoxy)phenyl]-3H-imidazo[4,5-b]pyridine] are 110 to 112 °C and 1600 nM.
The compound `COc1ccc(OCc2ccccc2)cc1-c1nc2cccnc2[nH]1` [Example 5, 2-(5-(benzyloxy)-2-methoxyphenyl)-3H-imidazo[4,5-b]pyridine] registered an EC50 in data set [1] of 2100 nM.
For `CC(C)Oc1ccc(OCc2ccccc2)cc1-c1nc2cc(-c3cccnc3)cnc2[nH]1` [Example 40, 2-[5-(benzyloxy)-2-isopropoxyphenyl]-6-pyridin-3-yl-3H-imidazo[4,5-b]pyridine], the concentration giving a half-maximal response (EC50) in data set [1] was determined as 440 nM.
In data set [1], `COc1ccc(-c2cnc3[nH]c(-c4cc(OCc5ccccc5)ccc4OC(C)C)nc3c2)c(OC)c1` [Example 45, 2-[5-(benzyloxy)-2-isopropoxyphenyl]-6-(2,4-dimethoxyphenyl)-3H-imidazo[4,5-b]pyridine] gave an EC50 of 280 nM.
In data set [1], `Cc1ccccc1-c1cnc2[nH]c(-c3cc(OCc4ccccc4)ccc3OC(C)C)nc2c1` [Example 47, 2-[5-(benzyloxy)-2-isopropoxyphenyl]-6-(2-methylphenyl)-3H-imidazo[4,5-b]pyridine] came in with an EC50 of 400 nM.
In data set [1], `COc1ccccc1-c1cnc2[nH]c(-c3cc(OCc4ccccc4)ccc3OC(C)C)nc2c1` [Example 48, 2-[5-(benzyloxy)-2-isopropoxyphenyl]-6-(2-methoxyphenyl)-3H-imidazo[4,5-b]pyridine] displayed an EC50 of 240 nM.
Consider `CC(C)Oc1cc(OCc2ccccc2)ccc1-c1nc2cc(-c3ccc(F)cc3)cnc2[nH]1` [Example 50, 2-[4-(benzyloxy)-2-isopropoxyphenyl]-6-(4-fluorophenyl)-3H-imidazo[4,5-b]pyridine], for which the EC50 in data set [1] was determined as 290 nM.
`COc1ccc(-c2cnc3[nH]c(-c4ccc(OCc5ccccc5)cc4OC(C)C)nc3c2)cc1` [Example 51, 2-[4-(benzyloxy)-2-isopropoxyphenyl]-6-(4-methoxyphenyl)-3H-imidazo[4,5-b]pyridine] registered an EC50 in data set [1] of 250 nM.
The compound `CC(C)Oc1cc(OCc2ccccc2)cc(-c2nc3cc(-c4cccnc4)cnc3[nH]2)c1` [Example 61, 2-[3-(benzyloxy)-5-isopropoxyphenyl]-6-pyridin-3-yl-3H-imidazo[4,5-b]pyridine] came in with an EC50 in data set [1] of 1100 nM.
For the compound `CC(C)Oc1cc(OCc2ccccc2)ccc1-c1nc2cc(-c3ccccc3F)cnc2[nH]1` [Example 72, 2-[4-(benzyloxy)-2-isopropoxyphenyl]-6-(2-fluorophenyl)-3H-imidazo[4,5-b]pyridine], the EC50 in data set [1] is 200 nM.
Turning to `CC(C)Oc1cc(OCc2ccccc2)ccc1-c1nc2cc(-c3cccc(F)c3)cnc2[nH]1` [Example 73, 2-[4-(benzyloxy)-2-isopropoxyphenyl]-6-(3-fluorophenyl)-3H-imidazo[4,5-b]pyridine], it took 150 nM to reach a half-maximal effect in data set [1] (EC50).
In turn, `CCOC(=O)c1cnc2[nH]c(-c3cc(OCc4ccccc4)ccc3OC(C)C)nc2c1` [Example 74, ethyl 2-[5-(benzyloxy)-2-isopropoxyphenyl]-3H-imidazo[4,5-b]pyridine-6-carboxylate] registered a melting point of 138 to 140 °C.
In the case of `CC(C)Oc1ccc(OCc2ccccc2)cc1-c1nc2cc(CO)cnc2[nH]1` [Example 76, {2-[5-(benzyloxy)-2-isopropoxyphenyl]-3H-imidazo[4,5-b]pyridin-6-yl}methanol], the melting point was 167 to 168 °C. Besides, a half-maximal response in data set [1] (EC50) required 730 nM.
For the compound `CC(C)Oc1ccc(OCc2ccccc2)cc1-c1nc2cc(C=O)cnc2[nH]1` [Example 77, 2-[5-(benzyloxy)-2-isopropoxyphenyl]-3H-imidazo[4,5-b]pyridine-6-carbaldehyde], the melting point lay within 170 to 171 °C.
Still for that read-out and setting: as for `CC(C)CNCc1cnc2[nH]c(-c3cc(OCc4ccccc4)ccc3OC(C)C)nc2c1` [Example 78, N-({2-[5-(benzyloxy)-2-isopropoxyphenyl]-3H-imidazo[4,5-b]pyridin-6-yl}methyl)-2-methylpropan-1-amine], the figure is 101 to 103 °C; as for `CC(C)Oc1ccc(OCc2ccccc2)cc1-c1nc2cc(CNCc3ccccc3)cnc2[nH]1` [Example 79, N-benzyl-1-{2-[5-(benzyloxy)-2-isopropoxyphenyl]-3H-imidazo[4,5-b]pyridin-6-yl}methaneamine], 92 to 94 °C.
In the case of `CC(C)Oc1ccc(OCc2ccccc2)cc1-c1nc2cc(CNCCOc3ccccc3)cnc2[nH]1` [Example 80, N-({2-[5-(benzyloxy)-2-isopropoxyphenyl]-3H-imidazo[4,5-b]pyridin-6-yl}methyl)-2-phenoxyethaneamine], the melting point fell in the range of 67 to 68 °C. In data set [1], this compound yielded an EC50 of 820 nM.
For the compound `COCCNCc1cnc2[nH]c(-c3cc(OCc4ccccc4)ccc3OC(C)C)nc2c1` [Example 81, N-({2-[5-(benzyloxy)-2-isopropoxyphenyl]-3H-imidazo[4,5-b]pyridin-6-yl}methyl)-2-methoxyethaneamine], the melting point was 80 to 81 °C.
Regarding `COC(=O)CNCc1cnc2[nH]c(-c3cc(OCc4ccccc4)ccc3OC(C)C)nc2c1` [Example 82, methyl N-({2-[5-(benzyloxy)-2-isopropoxyphenyl]-3H-imidazo[4,5-b]pyridin-6-yl}methyl)glycinate], the melting point fell in the range of 69 to 71 °C. Moreover, a half-maximal response in data set [1] (EC50) required 3700 nM.
Turning to `CC(C)Oc1ccc(OCc2ccccc2)cc1-c1nc2cc(CNCC(=O)O)cnc2[nH]1` [Example 83, N-({2-[5-(benzyloxy)-2-isopropoxyphenyl]-3H-imidazo[4,5-b]pyridin-6-yl}methyl)glycine], the melting point lay in the range of 182 to 184 °C.
Turning to `CC(C)Oc1ccc(OCc2ccccc2)cc1-c1nc2ccc(C#N)nc2[nH]1` [Example 84, 2-[5-(benzyloxy)-2-isopropoxyphenyl]-3H-imidazo[4,5-b]pyridine-5-carbonitrile], the melting point lay in the range of 214 to 215 °C.
Compound `CC(C)Oc1ccc(OCc2ccccc2)cc1-c1nc2ccc(CO)nc2[nH]1` [Example 87, {2-[5-(benzyloxy)-2-isopropoxyphenyl]-3H-imidazo[4,5-b]pyridin-5-yl}methanol] came in with a melting point of 167 to 168 °C.
